# Measurements published in patent publication US11598778B2, “Method for diagnosis, prognosis and determination of treatment for cutaneous t-cell lymphoma” (UNIVERSITY OF PITTSBURGH—OF THE COMMONWEALTH SYSTEM OF …, priority 2013, dated 2023).
# Tests used:
# Format in all cases: cell-based, human
# [1] = system: TOX; experiment: qRT-PCR of TOX gene expression in cultured PBMCs after drug treatment; details: isolated PBMCs, 48 hours of incubation with treatment; 4 μM romidepsin or 20 uM pralatrexate; romidepsin p<0.05; FIG. 5A
# Protocol: (§1) Isolated PBMCs were cultured overnight and the next day divided into two treatment groups: 4 μM romidepsin and 20 uM pralatrexate. Each treatment was added 24 hours following culture initiation and was replaced along with fresh media 24 hours after initial treatment. After 48 hours of incubation with treatment, RNA was isolated from treated cells using RNAprotect and RNeasy (Qiagen, Valencia, Calif.) per manufacturer's instructions. For cDNA synthesis, total RNA (100 ng) was used for Reverse Transcription (RT) with Superscript II reverse transcriptase (Life Technologies, Gaithersburg, Md.) using oligo dT primers according to the recommendations of the manufacturer. 2 ul of the resulting cDNA was used for each PCR reaction. Quantitative reverse transcription PCR was performed using TaqMan PCR master mix (Applied Biosystems, Foster City, Calif.) together with TaqMan probes and primers (Applied Biosystems) using standard conditions. Expression of TOX, PLS3 and […] genes were measured in this way.
# [2] = system: PLS3; experiment: qRT-PCR of PLS3 gene expression in cultured PBMCs after drug treatment; details: isolated PBMCs, 48 hours of incubation with treatment; 4 μM romidepsin or 20 uM pralatrexate; romidepsin p<0.05; FIG. 5B
# Protocol: as §1
# [3] = system: RUNX3; experiment: qRT-PCR of RUNX3 gene expression in cultured PBMCs after drug treatment; details: isolated PBMCs, 48 hours of incubation with treatment; 4 μM romidepsin or 20 uM pralatrexate; romidepsin p<0.05; FIG. 5C
# Protocol: as §1
structure (smiles),measurement,setting,value
C#CCC(Cc1cnc2nc(N)nc(N)c2n1)c1ccc(C(=O)N[C@@H](CCC(=O)O)C(=O)O)cc1 (stereo partly drawn) [pralatrexate],gene expression of TOX,[1],did not result in altered gene expression
same,gene expression of PLS3,[2],did not result in altered gene expression
same,expression of RUNX3,[3],did not result in altered gene expression
